Test results taken from ChEMBL document CHEMBL1201862, “PubChem BioAssay data set” (2004).
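Cultured in 96-well plates, cells were exposed to test compound for 48 hours across five concentrations. GI50 marks 50% less growth.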 Active and inactive are the calls of the source. Rule as the data show it: active = GI50 up to about 1.1 µM and inactive = higher.

Legend:
Assay in all cases: NCI-60 cell line screen, 48 h
OVCAR-3 = system: OVCAR-3
HCT-15 = system: HCT-15
SK-MEL-5 = system: SK-MEL-5
HCT-116 = system: HCT-116
OVCAR-8 = system: OVCAR-8
SNB-75 = system: SNB-75
CAKI-1 = system: CAKI-1
UACC-62 = system: UACC-62
HOP-62 = system: HOP-62
IGROV-1 = system: IGROV-1
SK-MEL-2 = system: SK-MEL-2
A498 = system: A498
OVCAR-5 = system: OVCAR-5
EKVX = system: EKVX
HOP-92 = system: HOP-92
OVCAR-4 = system: OVCAR-4
NCI-H522 = system: NCI-H522
SN12C = system: SN12C
RXF 393 = system: RXF 393

Row | SMILES | GI50 (OVCAR-3) | GI50 (HCT-15) | GI50 (SK-MEL-5) | GI50 (HCT-116) | GI50 (OVCAR-8) | GI50 (SNB-75) | GI50 (CAKI-1) | GI50 (UACC-62) | GI50 (HOP-62) | GI50 (IGROV-1) | GI50 (SK-MEL-2) | GI50 (A498) | GI50 (OVCAR-5) | GI50 (EKVX) | GI50 (HOP-92) | GI50 (OVCAR-4) | GI50 (NCI-H522) | GI50 (SN12C) | GI50 (RXF 393)
1 | COC(=O)N1C=Cc2c(c(C)c3c([nH]c4ccccc43)c2C)C1C (centres undefined) | 16.3 µM (inactive) | 10.6 µM | 15.3 µM (inactive) | 12.9 µM (inactive) | 18.3 µM (inactive) | 15.3 µM (inactive) | 18.1 µM (inactive) | 18 µM (inactive) | 18.2 µM (inactive) | 25.2 µM (inactive) | 18.3 µM (inactive) | 14.1 µM (inactive) | 17.2 µM (inactive) | 14 µM (inactive) | 20.1 µM (inactive) | 12.3 µM (inactive) |  |  | 
2 | CC(=O)Oc1ccc(Nn2c3ccccc3c3ccccc32)c(C)c1 | 42.6 µM (inactive) | 24.6 µM | 39.2 µM (inactive) | 35.7 µM (inactive) | 24.3 µM (inactive) |  |  | 51.5 µM (inactive) | 36.1 µM (inactive) | 23.6 µM (inactive) | 37 µM (inactive) |  | > 100 µM (inactive) |  | 24.5 µM (inactive) |  | 19.3 µM (inactive) | 41.5 µM (inactive) | 29.5 µM (inactive)
3 | NC(CCCCNCc1ccccc1)C(=O)O (centres undefined) | > 100 µM (inactive) | > 100 µM | > 100 µM (inactive) | > 100 µM (inactive) | > 100 µM (inactive) | > 100 µM (inactive) | > 100 µM (inactive) | > 100 µM (inactive) | > 100 µM (inactive) | > 100 µM (inactive) | > 100 µM (inactive) | > 100 µM (inactive) | > 100 µM (inactive) | > 100 µM (inactive) | > 100 µM (inactive) | > 100 µM (inactive) | > 100 µM (inactive) | > 100 µM (inactive) | 
4 | O=C(O)CCCCCCC[C@H]1S[C@H]1CCCCCCO | > 100 µM (inactive) | > 100 µM | > 100 µM (inactive) | > 100 µM (inactive) | > 100 µM (inactive) |  | > 100 µM (inactive) | > 100 µM (inactive) | > 100 µM (inactive) | > 100 µM (inactive) | > 100 µM (inactive) |  | > 100 µM (inactive) | > 100 µM (inactive) | < 0.01 µM (active) | > 100 µM (inactive) |  |  | > 100 µM (inactive)
5 | CC(C)CC(N/C=C1/N=C(c2ccccc2)OC1=O)C(=O)O (centres undefined) | > 100 µM (inactive) | > 100 µM | > 100 µM (inactive) | > 100 µM (inactive) | > 100 µM (inactive) | 37.3 µM (inactive) | > 100 µM (inactive) | > 100 µM (inactive) | > 100 µM (inactive) | > 100 µM (inactive) | > 100 µM (inactive) | > 100 µM (inactive) | > 100 µM (inactive) | > 100 µM (inactive) |  | > 100 µM (inactive) | > 100 µM (inactive) | > 100 µM (inactive) | > 100 µM (inactive)
6 | O=C(CC1(O)C(=O)Nc2c(Cl)cc(Cl)cc21)c1ccco1 (centres undefined) | 21.2 µM (inactive) | 40.5 µM | 77.6 µM (inactive) |  | 37.4 µM (inactive) | 29 µM (inactive) | 45 µM (inactive) |  | 60.1 µM (inactive) |  | 60.7 µM (inactive) |  | > 100 µM (inactive) | 59.2 µM (inactive) | 36.6 µM (inactive) | 15.7 µM (inactive) | 62.5 µM (inactive) | 63.8 µM (inactive) | 78 µM (inactive)
7 | CC(=O)C1C(=O)C(=O)N(c2ccc(Cl)cc2C)C1=O (centres undefined) |  | > 100 µM | > 100 µM (inactive) | > 100 µM (inactive) | > 100 µM (inactive) |  |  | > 100 µM (inactive) | > 100 µM (inactive) | > 100 µM (inactive) | > 100 µM (inactive) | > 100 µM (inactive) | > 100 µM (inactive) | > 100 µM (inactive) | > 100 µM (inactive) | > 100 µM (inactive) | > 100 µM (inactive) | > 100 µM (inactive) | > 100 µM (inactive)
8 | O=C1NC2CCCCCC2C12CCCCC2 (centres undefined) | > 100 µM (inactive) | > 100 µM |  | > 100 µM (inactive) |  | > 100 µM (inactive) |  | > 100 µM (inactive) | > 100 µM (inactive) | > 100 µM (inactive) |  | > 100 µM (inactive) | > 100 µM (inactive) | > 100 µM (inactive) |  | > 100 µM (inactive) |  | > 100 µM (inactive) | > 100 µM (inactive)
9 | Cn1c2ccccc2c2ccc3c(c21)C(=O)C(c1ccccc1)=CC3=O | 23.7 µM (inactive) | 7.03 µM | 22.8 µM (inactive) | 14.5 µM (inactive) | 14.9 µM (inactive) | 9.31 µM (inactive) | 49.9 µM (inactive) |  | 13.4 µM (inactive) | 13.4 µM (inactive) | 22 µM (inactive) |  | > 100 µM (inactive) | 23.2 µM (inactive) | 15.7 µM (inactive) |  | 19.2 µM (inactive) | 17.3 µM (inactive) | 
10 | O=C(NNc1ccc([N+](=O)[O-])cc1)C1OC(CO)C(O)C1O (centres undefined) | > 100 µM (inactive) | 54.8 µM | > 100 µM (inactive) | > 100 µM (inactive) | > 100 µM (inactive) | > 100 µM (inactive) | > 100 µM (inactive) | > 100 µM (inactive) | > 100 µM (inactive) | > 100 µM (inactive) | > 100 µM (inactive) | > 100 µM (inactive) | > 100 µM (inactive) | > 100 µM (inactive) | > 100 µM (inactive) | > 100 µM (inactive) |  | > 100 µM (inactive) | > 100 µM (inactive)
11 | COc1ccc2c(c1)[n+]([O-])c(-c1cccc(Cl)c1)c(N)[n+]2[O-] | 36.2 µM (inactive) |  | 19.2 µM (inactive) | 38.5 µM (inactive) | 40.3 µM (inactive) |  | 62.4 µM (inactive) |  | > 100 µM (inactive) | 46.8 µM (inactive) | 18.7 µM (inactive) | > 100 µM (inactive) | 33.1 µM (inactive) | > 100 µM (inactive) | > 100 µM (inactive) | 34.6 µM (inactive) | 16.5 µM (inactive) | 48.4 µM (inactive) | 53.8 µM (inactive)
12 | N#C/C(=C/c1ccco1)C(=O)c1ccccc1 |  | > 100 µM | > 100 µM (inactive) | > 100 µM (inactive) | > 100 µM (inactive) | > 100 µM (inactive) | > 100 µM (inactive) | > 100 µM (inactive) |  | > 100 µM (inactive) | > 100 µM (inactive) | > 100 µM (inactive) | > 100 µM (inactive) | > 100 µM (inactive) | > 100 µM (inactive) | > 100 µM (inactive) | > 100 µM (inactive) | > 100 µM (inactive) | 
13 | CS(=O)(=O)N/N=C/CN1C(=O)c2ccccc2C1=O | > 100 µM (inactive) | > 100 µM | > 100 µM (inactive) | > 100 µM (inactive) | > 100 µM (inactive) | > 100 µM (inactive) | > 100 µM (inactive) | > 100 µM (inactive) | > 100 µM (inactive) | > 100 µM (inactive) | > 100 µM (inactive) | > 100 µM (inactive) | > 100 µM (inactive) | > 100 µM (inactive) |  | > 100 µM (inactive) | > 100 µM (inactive) | > 100 µM (inactive) | 
14 | COc1ccc(/C(Cl)=C(\C=O)c2ccc(OC)c(OC)c2)cc1 | > 100 µM (inactive) | 52.1 µM | 39.2 µM (inactive) |  | 65.6 µM (inactive) | 21.7 µM (inactive) | 74.5 µM (inactive) | 16.6 µM (inactive) |  | 46.1 µM (inactive) | 18.5 µM (inactive) | 35.9 µM (inactive) |  | 93.8 µM (inactive) | 20.8 µM (inactive) |  | 9.35 µM (inactive) | 81.8 µM (inactive) | 
15 | COc1ccc(Br)c(CN2CCc3ccccc32)c1OS(=O)(=O)c1ccc(C)cc1 | 5.07 µM (inactive) | 25.1 µM |  |  | 47.5 µM (inactive) | 19.2 µM (inactive) |  |  |  |  | 21.8 µM (inactive) |  | > 100 µM (inactive) | 58.7 µM (inactive) | 18 µM (inactive) |  | 4.39 µM (inactive) | 76 µM (inactive) | 8.67 µM (inactive)
16 | CC1C(/C=C/c2ccoc2)ON2CCCC12 (centres undefined) |  |  |  |  | > 100 µM (inactive) | > 100 µM (inactive) | > 100 µM (inactive) |  | > 10 µM (inactive) |  | > 100 µM (inactive) |  | > 100 µM (inactive) | > 100 µM (inactive) | 17.8 µM (inactive) | > 100 µM (inactive) | > 100 µM (inactive) | > 100 µM (inactive) | 35.6 µM (inactive)
17 | COC(C(O)c1ccc2c(c1)OCO2)P(=O)(c1ccccc1)c1ccccc1 (centres undefined) | 15.1 µM (inactive) |  | > 100 µM (inactive) | > 100 µM (inactive) | 62.1 µM (inactive) | 35.9 µM (inactive) | 33.6 µM (inactive) | 32.4 µM (inactive) | > 100 µM (inactive) | > 100 µM (inactive) | > 100 µM (inactive) | 75.2 µM (inactive) | > 100 µM (inactive) | > 100 µM (inactive) | 68.2 µM (inactive) | 11.1 µM (inactive) | 85.3 µM (inactive) | 62.8 µM (inactive) | 81.7 µM (inactive)
18 | COC(=O)C1=C(O)c2cc3c(cc2[C@H](c2cc(OC)c(OC)c(OC)c2)C1C(=O)OC)OCO3 (some centres undefined) | 30.4 µM (inactive) | > 100 µM | 32.8 µM (inactive) | 34.7 µM (inactive) | 39.5 µM (inactive) | 22.8 µM (inactive) | 25.2 µM (inactive) | 30.1 µM (inactive) | > 100 µM (inactive) | 48.6 µM (inactive) |  | 76 µM (inactive) | > 100 µM (inactive) | 68.2 µM (inactive) | 33.7 µM (inactive) | 30.2 µM (inactive) |  | 25.5 µM (inactive) | 30.2 µM (inactive)
